What was measured:
[1] = Fung and Hardan 2015; cited from earlier work
[2] = test system: p38 MAPK/MAPKAPK2/TSC2/mTORC1/S6K1 cascade; assay: Western blots of eNMDAR-triggered signaling; type: cell-based; settings: 10 μM
Excerpt: This experiment was replicated 4 times with similar results and quantified in FIG. 20C.

Tsc2+/- mice [3] = assay: Quantitative confocal immunohistochemistry of synaptophysin (SY38) in hippocampus; type: in vivo, mouse; settings: i.p. loading 92 μmol/kg then 4.6 μmol/kg twice daily, two and a half days
Excerpt: To determine the effects of […] antagonists on the brain histology of Tsc2^+/- mice, quantitative confocal immunohistochemistry was used to analyze coronal brain slices from 3-month-old wild-type (WT) and Tsc2^+/- mice that had been treated for two and a half days with vehicle, memantine or NitroSynapsin. Tsc2+/- mice on the C57Bl/6J background received via the intraperitoneal route either vehicle or a loading dose of 92 μmol/kg of memantine or NitroSynapsin, followed by 4.6 μmol/kg of drug twice daily for two-and-a-half-days, with the last dose 3 hours prior to the behavioral training session (for a total of five drug injections). This dosing regimen yields an effective concentration of drug at NMDARs in the brain of 1-10 μM.

Mef2c-het mice = assay: Immunohistochemistry and stereological cell counting in hippocampus after chronic treatment; type: in vivo, mouse; settings: optical dissector
Excerpt: Mef2c heterozygous knockout (Mef2c-het) mice were created by crossing mice carrying the conventional exon 2-deleted allele of Mef2c (Mef2c^Δ2) with their WT littermates. All procedures for maintaining and using these mice were approved by the Institutional Animal Care and Use Committee (IACUC) at the Sanford Burnham Prebys Medical Discovery Institute. In this study, only male mice were used for the behavioral assays to insure uniformity (either with or without drug treatment). Chronic treatment with memantine, NitroSynapsin (both at 4.6 μmol/kg body weight) or vehicle (PBS) was administered via i.p. injection, twice a day for at least 3 months, starting at ˜2.5 weeks of age. This age was chosen because mice are still juveniles and thus treatment could begin in human at an equivalent stage.
Mice were perfused with PBS buffer and then 2% paraformaldehyde in PBS (PFA).
After perfusion, brains were removed and placed into 2% PFA overnight for post-fixation and then sunk in 30% sucrose in PBS prior to freezing. Cryostat sections were cut at a thickness of 15 μm. Sections were soaked in Antigen Unmasking Solution (Vector) and microwaved for 30 s, followed by permeabilization with 0.25% Triton X-100 in PBS for 15 min. Primary antibodies were incubated for 16 h at 4° C. and fluorescence-conjugated secondary antibodies for 2 h at 25° C. Numerous unstained cells in each field served as an internal control for staining specificity. Primary antibodies included: NeuN (mouse, EMD Millipore), activated caspase-3 (rabbit, Cell Signaling), VGLUT1 (guinea pig, SYSY), VGLUT2 (rabbit, SYSY), VGAT (mouse, SYSY), synaptophysin (mouse, Sigma), GFAP (mouse, Sigma), PCNA (mouse, Santa Cruz), DCX (goat, Santa Cruz). TUNEL assay was performed to assess apoptosis using the Roche In Situ Cell Death Detection Kit per vender's instruction. The number of cells positive or percent area occupied by NeuN, activated caspase-3, TUNEL, GFAP, PCNA, or DCX was counted in specific brain regions using an optical dissector, or estimated by quantitative confocal immunohistochemistry or optical density, as described previously.

Tsc2+/- mice [4] = assay: Fear conditioning test; type: in vivo, mouse; settings: two-and-a-half-day treatment, last dose 3 hours before training
Excerpt: To determine the effects of eNMDAR antagonists on the brain histology of Tsc2^+/− mice, quantitative confocal immunohistochemistry was used to analyze coronal brain slices from 3-month-old wild-type (WT) and Tsc2^+/− mice that had been treated for two and a half days with vehicle, memantine or NitroSynapsin. Tsc2+/− mice on the C57Bl/6J background received via the intraperitoneal route either vehicle or a loading dose of 92 μmol/kg of memantine or NitroSynapsin, followed by 4.6 μmol/kg of drug twice daily for two-and-a-half-days, with the last dose 3 hours prior to the behavioral training session (for a total of five drug injections). This dosing regimen yields an effective concentration of drug at NMDARs in the brain of 1-10 μM.
Fear conditioning tests were performed on three-month-old Tsc2^+/+ and Tsc2^+/− mice to explore the effects of eNMDAR antagonists on anxiety, and learning and memory deficits in Tsc2^+/− mice. Vehicle, memantine or NitroSynapsin were administered for two and a half days, with the last dose of drug occurring 3-hours prior to the first training session. […] Freezing time of three-month-old WT and Tsc2^+/− transgenic mice treated with vehicle, memantine or NitroSynapsin in fear-conditioning trials. […] Values are mean+s.e.m. (n=7-12 mice per group). […]

In the case of `CC12CC3CC(C)(C1)CC(N)(C3)C2` [memantine, reference compound], the “outcome in human clinical trials for ASD/IDD” value [1] is listed as “failed in human clinical trials”, the “phosphorylation/activation of the p38 MAPK/MAPKAPK2/TSC2/mTORC1/S6K1 cascade on eNMDAR stimulation” value [2] is listed as “reduced this signaling” and the “synaptophysin (SY38) staining in hippocampus (% area)” value (Tsc2+/- mice [3]) is listed as “not statistically significant”. For the same molecule, the “total number of NeuN+ cells in hippocampus” value (Mef2c-het mice) was “but not memantine (M), was significantly greater than in vehicle (V)-treated mice” and the “context discrimination (freezing time, training vs novel context)” value (Tsc2+/- mice [4]) was “failed to mitigate this deficit”.

— patent US11529319B2, “Methods and compositions for treating neurological conditions” (priority 2017, dated 2022)
